Data published in patent publication US11801249B1, “Broad-spectrum antitrypanosomal compounds” (KING FAISAL UNIVERSITY, priority 2023, dated 2023).
In brackets after ≈: the same amount, converted by molar mass.

Columns and labels:
Assay in all cases: Antitrypanosomal assay (ATP-based luciferase viability)
Format in all cases: cell-based
[1] = test system: T. evansi (Tev) Tansui; conditions: Trypanosoma evansi, mean ± SD; for inhibition at 0.25 µg/mL: 0.25 μg/ml; for inhibition at 0.25 µg/mL / inhibition at 25 µg/mL: read-out: Inhibition rate; for inhibition at 25 µg/mL: 25 μg/ml; for IC50: 72 h, three days
From the text: (§1) Six trypanosome species namely T. b. brucei (Tbb) GuTat3.1, T. b. rhodesiense (Tbr) IL1501, T. b. gambiense (Tbg) IL1922, T. evansi (Tev) Tansui, T. equiperdum (Teq) IVM-t1 and T. congolense (Tc) IL3000 were cultivated using HMI-9 medium and used in the study. Following the procedures reported in Suganuma et al. (2014): “Establishment of ATP-based luciferase viability assay in 96-well plate for Trypanosoma congolense”, J Vet Med Sci 76, 1437-41, the trypanocidal activity of the two compounds discussed herein was assessed at 25 μg/ml or […]. […] The IC50 of the compounds against six trypanosome species was determined using serial dilution in a 96-well plate (Optical bottom plate, ThermoFisher SCIENTIFIC, MA, USA). After three days, 25 μL of CellTiter-GIo Luminescent cell viability reagent (Promega Corporation, WI, USA) was aliquoted into each well and luminosity was measured with a GloMax plate reader (Promega Corporation, WI, USA).
(§2) At first, the compounds were assayed at high and low concentrations of […], respectively (Table 3).
(§3) Given the promising initial antitrypanosomal action of the compounds, the IC50 was measured in the presence of several concentrations of the compound.

[2] = test system: T. b. gambiense (Tbg) IL1922; conditions: Trypanosoma brucei, mean ± SD; for IC50: 72 h, TbgIL1922, three days; for inhibition at 0.25 µg/mL: TbgIL1922, 0.25 μg/ml; for inhibition at 0.25 µg/mL / inhibition at 25 µg/mL: read-out: Inhibition rate; for inhibition at 25 µg/mL: TbgIL1922, 25 μg/ml
From the text: as §1, §2, §3

[3] = test system: T. b. rhodesiense (Tbr) IL1501; conditions: Trypanosoma brucei, mean ± SD; for IC50: 72 h, TbrIL1501, three days; for inhibition at 0.25 µg/mL: TbrIL1501, 0.25 μg/ml; for inhibition at 0.25 µg/mL / inhibition at 25 µg/mL: read-out: Inhibition rate; for inhibition at 25 µg/mL: TbrIL1501, 25 μg/ml
From the text: as §1, §2, §3

[4] = test system: T. congolense (Tc) IL3000; conditions: Trypanosoma congolense, TcIL3000, mean ± SD; for IC50: 72 h, three days; for inhibition at 0.25 µg/mL: 0.25 μg/ml; for inhibition at 0.25 µg/mL / inhibition at 25 µg/mL: read-out: Inhibition rate; for inhibition at 25 µg/mL: 25 μg/ml
From the text: as §1, §2, §3

[5] = test system: T. equiperdum (Teq) IVM-t1; conditions: Trypanosoma equiperdum, mean ± SD; for inhibition at 0.25 µg/mL: 0.25 μg/ml; for inhibition at 0.25 µg/mL / inhibition at 25 µg/mL: read-out: Inhibition rate; for inhibition at 25 µg/mL: 25 μg/ml; for IC50: 72 h, three days
From the text: as §1, §2, §3

[6] = test system: T. b. brucei (Tbb) GuTat3.1; conditions: Trypanosoma brucei, TbbGUTat3.1, mean ± SD; for IC50: 72 h, three days; for inhibition at 0.25 µg/mL: 0.25 μg/ml; for inhibition at 0.25 µg/mL / inhibition at 25 µg/mL: read-out: Inhibition rate; for inhibition at 25 µg/mL: 25 μg/ml
From the text: as §1, §2, §3

Row | Compound | inhibition at 0.25 µg/mL [1] | inhibition at 25 µg/mL [1] | IC50 [1] | IC50 [2] | inhibition at 0.25 µg/mL [2] | inhibition at 25 µg/mL [2] | IC50 [3] | inhibition at 0.25 µg/mL [3] | inhibition at 25 µg/mL [3] | IC50 [4] | inhibition at 0.25 µg/mL [4] | inhibition at 25 µg/mL [4] | inhibition at 0.25 µg/mL [5] | inhibition at 25 µg/mL [5] | IC50 [5] | IC50 [6] | inhibition at 0.25 µg/mL [6] | inhibition at 25 µg/mL [6]
1 | Fc1ccc(-c2cn[nH]c2C2CCCN(c3ncnc4[nH]ccc34)C2)cc1 (stereo not drawn) [Compound 1, 4-{3-[4-(4-fluorophenyl)-1H-pyrazol-5-yl]piperidin-1-yl}-7H-pyrrolo[2,3-d]pyrimidine] | 9.14 ± 6.02% | 99.1 ± 0.46% | 13.3 ± 3.36 mg/L (≈ 36.8 µM) | 3.51 ± 0.9 mg/L (≈ 9.69 µM) | 2.82 ± 3.98% | 99.01 ± 0.01% | 5.56 ± 0.13 mg/L (≈ 15.3 µM) | 15.9 ± 11.1% | 99.34 ± 0.01% | 2.65 ± 0.47 mg/L (≈ 7.31 µM) | 8.85 ± 9.99% | 98.64 ± 0.16% | 4.26 ± 6.01% | 99.22 ± 0.01% | 10.3 ± 0.36 mg/L (≈ 28.4 µM) | 3.53 ± 0.67 mg/L (≈ 9.74 µM) | 13.2 ± 4.07% | 99.38 ± 0.02%
2 | Fc1ccc(-c2cn[nH]c2C2CCCN(c3ncnc4[nH]cnc34)C2)cc1 (stereo not drawn) [Compound 2, 6-{3-[4-(4-fluorophenyl)-1H-pyrazol-5-yl]piperidin-1-yl}-9H-purine] | 6.14 ± 7.12% | 98.7 ± 0.04% | 9.26 ± 1.2 mg/L (≈ 25.5 µM) | 3.11 ± 0.88 mg/L (≈ 8.56 µM) | 1.82 ± 1.45% | 98.21 ± 0.02% | 4.65 ± 0.25 mg/L (≈ 12.8 µM) | 11.3 ± 6.63% | 98.64 ± 0.02% | 2.77 ± 0.57 mg/L (≈ 7.62 µM) | 8.09 ± 6.96% | 98.01 ± 0.2% | 5.2 ± 4.11% | 98.62 ± 0.05% | 9.12 ± 0.8 mg/L (≈ 25.1 µM) | 3.66 ± 0.77 mg/L (≈ 10.1 µM) | 13.9 ± 3.11% | 99.03 ± 0.02%
